The results in this text go back to article PMC8778187, “A New Oxygen Containing Pyclen-Type Ligand as a Manganese(II) Binder for MRI and ^52Mn PET Applications: Equilibrium, Kinetic, Relaxometric, Structural and Radiochemical Studies” (Molecules, 2022).

A short description of data set [1]: Stability and protonation constants of Mg(II) complexes by pH-potentiometry. The data set is classed as physicochemical. The settings on record: Mg^2+ complex; T = 25 °C, I = 0.15 M NaCl. As to the method: The stability and protonation constants of the metal complexes formed with H2OPC2A were determined by pH-potentiometric titrations, but, for the Cu(II) complex, UV-Vis spectrophotometric measurements were also carried out to supplement the pH-potentiometric titration data (Figures S21 and S22, Supporting Information).
Metal stock solutions were prepared from the highest analytical grade chemicals, and their concentrations were determined by complexometric titration with standardized Na2H2EDTA and eriochrome black T indicator in the presence of ascorbic acid, and potassium hydrogen tartrate for MnCl2, murexide indicator for CaCl2 and CuCl2, eriochrome black T for MgCl2 and xylenol orange in the presence of hexamethylenetetramine for the solution of ZnCl2. The concentration of the ligand stock solution was determined by pH-potentiometric titrations. The protonation constants of the ligand were determined by the pH potentiometric titrations with 0.15 M NaOH, using 0.0025 M ligand solutions. The ionic strength was set to 0.15 M by using NaCl. […]
To avoid the effect of CO2, N2 gas was bubbled through the solutions during the titrations process. […] For the calibration of the pH meter, KH-phtalate (pH = 4.005) and borax (pH = 9.177) buffers were used, and the H^+ ion concentrations were calculated from the measured pH values by applying the method proposed by Irving et al.. […]

Data set [2] can be described thus: 1H relaxometry: r1p and r2p relaxivity of Mn(II) complexes. The format is physicochemical. The settings on record: for r1p / r2p: Mn(II) complex, pH = 7.4. As to the method:
The relaxivity of Mn(II) complexes is one of the most important parameters that directly correlates with its MRI efficacy. Relaxivity is defined as the longitudinal (r1p) and transverse (r2p) water proton relaxation rate enhancement, provided by 1.0 mM concentration of the paramagnetic species. The relaxivity (r1p and r2p) of the Mn(II) complexes were determined using relaxometers operating at 0.49 T and 1.41 T field strength, in a HEPES buffer (I = 0.15 M NaCl) at different temperatures from the slopes of plots 1/T1,2 vs. (Mn(II)) for 4 concentrations of Mn(II) (data shown in Supporting Information Figures S24 and S25), and they are compared in Table 4.
The ^1H longitudinal (T1) and transverse (T2) relaxation times were measured by using Bruker Minispec MQ-20 and MQ-60 NMR analyzers (Bruker corporation, Billerica, MA, USA). The temperature of the sample holder was set at 25.0 or 37 (±0.2) °C, and controlled with a circulating water bath thermostat. The T1 values of the samples were determined by means of the inversion recovery method (180°–τ–90°), averaging 4–6 data points obtained at 12 different τ delay times, while T2 data were collected by using the Carl–Purcell–Meiboom–Gill (CPMG) spin-echo pulse sequence. Relaxivities were determined by published procedures (from the slopes of the plots of 1/T1,2 vs. (Mn(II)) for 4 concentrations of Mn(II)), in samples of 0.3–0.4 mL volume (data shown in Figures S24 and S25, Supplementary Information). The pH were set by either using a 0.05 M 4-(2-hydroxyethyl)-1-piperazine-ethanesulfonic acid (HEPES) buffer (pH = 7.4) or monitored (pH profiles) using a Metrohm 827 pH lab pH meter and a Metrohm 6.0234.100 combined electrode, in the pH range of 1.75–11.8.

For the molecule `O=C(O)CN1CCOCCN(CC(=O)O)Cc2cccc(n2)C1` [H23,9-OPC2A, 6-Oxa-3,9,15-triazabicyclo(9.3.1)pentadeca-1(15),11,13-triene-3,9-diacetic acid], the “log KMgL (stability constant of the Mg(II) complex)” value in data set [1] was 7.02(1). Besides, the r1p is 3.13(2) mM^−1s^−1 in data set [2] (0.49 T, 25 °C); 2.54(1) mM^−1s^−1 in data set [2] (0.49 T, 37 °C); 2.72(2) mM^−1s^−1 in data set [2] (1.41 T, 25 °C); 2.06(1) mM^−1s^−1 in data set [2] (1.41 T, 37 °C). For the same molecule, the r2p in data set [2] (0.49 T, 25 °C) was 5.15(3) mM^−1s^−1; in data set [2] (0.49 T, 37 °C) it was 4.17(4) mM^−1s^−1; in data set [2] (1.41 T, 25 °C) it was 9.90(5) mM^−1s^−1; in data set [2] (1.41 T, 37 °C), 7.37(3) mM^−1s^−1.

On to `O=C([O-])CN1CCOCCN(CC(=O)[O-])Cc2cccc(n2)C1.[Mn+2]` [[Mn(3,9-OPC2A)]], for which the “r1p in pure aqueous solution” value in data set [2] (1.41 T, 25 °C) is 2.70 mM⁻¹ s⁻¹. Further, the “r1p near pH = 1.8” value in data set [2] (1.41 T, 25 °C, complex protonated and dissociated at low pH) was found to be 6.51 mM^−1s^−1.
